Reference: patent US8575091B1, “Amylin analogues and pharmaceutical compositions thereof” (Novo Nordisk A/S, priority 2012, dated 2013)
Where two headings read alike, the source gives them in different places. Numbered stars: 1 amine (or outer) side, 2 acyl side, 3 side chain; on linkers, the order of the positions; unused ones are H or OH. Bridge positions count the residues as written; N and C are the ends. Side chains are listed from the residue outwards. Peptide text beside a SMILES is read from it. * marks the point of attachment. C20 diacid = O=C(O)CCCCCCCCCCCCCCCCCCC(=O)*; γGlu = O=C(O)[C@H](CCC(=O)[*:2])N[*:1]; AEEA = NCCOCCOCC(=O)O

How the values were obtained:
[1] = target: T1, human calcitonin receptor (Homo sapiens, UniProt P30988); assay: Assay (II)a functional assay, human calcitonin receptor (CRE luciferase, BHK cells);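 note: luminescence from a CRE-driven luciferase reporter, read by single photon counting after cells were exposed to test samples for 3 h at 37 °C under 5% CO2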; format: cell-based; conditions: read-out: hCTR funct. EC50
T1 construct: expressed in transfected cells
T1 sequence (P30988 25-474): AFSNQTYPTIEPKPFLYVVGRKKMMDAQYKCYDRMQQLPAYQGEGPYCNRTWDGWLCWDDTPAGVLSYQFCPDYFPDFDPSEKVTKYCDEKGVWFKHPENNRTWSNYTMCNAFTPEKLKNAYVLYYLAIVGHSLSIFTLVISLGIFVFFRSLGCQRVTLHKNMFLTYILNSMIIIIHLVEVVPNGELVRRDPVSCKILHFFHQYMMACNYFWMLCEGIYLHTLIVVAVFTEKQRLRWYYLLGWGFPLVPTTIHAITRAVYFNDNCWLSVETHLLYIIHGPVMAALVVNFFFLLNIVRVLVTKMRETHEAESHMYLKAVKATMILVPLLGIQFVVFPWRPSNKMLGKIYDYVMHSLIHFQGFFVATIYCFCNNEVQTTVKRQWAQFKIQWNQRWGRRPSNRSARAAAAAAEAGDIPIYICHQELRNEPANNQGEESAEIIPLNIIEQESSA

[2] = target: T1, human calcitonin receptor; assay: Assay (VII) binding to the human calcitonin receptor (SPA, 125I-Calcitonin); conditions: read-out: hCTR bind IC50;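 note: cell membranes coupled to SPA beads, competitive displacement read by scintillation counting, IC50 derived from a one-site competition fit as a measure of receptor affinity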
[3] = target: T2, human amylin receptor (amylin 3(a) receptor: human calcitonin receptor + RAMP-3) (Homo sapiens, UniProt O60896+P30988); assay: Assay (II)a functional assay, human amylin receptor (CRE luciferase, BHK cells); format: cell-based; conditions: for EC50: read-out: hAmylin-R funct. EC50
T2 construct: expressed in transfected cells
T2 sequence (P30988 25-474): T1 sequence (P30988 25-474)
T2 sequence (O60896 24-148 partner): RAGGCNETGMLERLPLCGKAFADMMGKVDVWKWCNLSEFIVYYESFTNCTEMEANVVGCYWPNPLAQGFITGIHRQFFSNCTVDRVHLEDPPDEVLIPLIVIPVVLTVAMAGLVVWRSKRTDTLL

[4] = target: T3, human amylin receptor (Homo sapiens, UniProt O60896+P30988); assay: Assay (V) binding to the human amylin receptor (SPA, 125I-rat amylin); conditions: for IC50: human amylin receptor membranes, SPA, read-out: hAmylin-R bind IC50
T3 construct: expressed in transfected cells
T3 sequence (P30988 25-474): T1 sequence (P30988 25-474)
T3 sequence (O60896 24-148 partner): T2 sequence (O60896 24-148 partner)
Procedure, shortened: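 IC50, taken as receptor affinity, came from one-site binding competition analysis of scintillation proximity counts. Amylin 3(a)/CRE-luc cell membranes (35 ng/μL final) were mixed with SPA beads (0.05 mg/well) in 50 mM Hepes pH 7.4 containing CaCl2, MgCl2, 0.1% OA and 0.02% Tween20.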

[5] = functional assay, human amylin receptor
[6] = Table 6, human functional selectivity (hCTR EC50 / hAmylin-R EC50)
[7] = Table 6a, human functional selectivity (hCTR EC50 / hAmylin-R EC50), at least 5
[8] = Table 6j, hCTR funct. EC50 / hAmylin-R funct. EC50
[9] = Table 6k, hCTR funct. EC50 / hAmylin-R funct. EC50

Row | Compound | EC50 [1] [nM] | IC50 [2] [nM] | EC50 [3, 5] [nM] | IC50 [4] [nM] | Ratio hCT/hAmylin funct. [3, 6] | Ratio hCT/hAmylin funct. [3, 7] | Ratio hCT/hAmylin funct. ([3]; Table 6i, hCTR funct. EC50 / hAmylin-R funct. EC50) | EC50 ([3]; Table 6i, human amylin receptor functional) [nM] | Ratio hCT/hAmylin funct. [3, 8] | Ratio hCT/hAmylin funct. [3, 9] | EC50 ([3]; Table 6j, human amylin receptor functional) [nM] | Ratio hCT/hAmylin binding ([4]; Table 7b, human calcitonin receptor binding IC50 divided by human amylin receptor binding IC50) | Ratio hCT/hAmylin binding ([4]; Table 7c, human calcitonin receptor binding IC50 divided by human amylin receptor binding IC50) | Ratio hCT/hAmylin binding ([4]; human binding ratio, included for comparison)
1 | CC[C@H](C)[C@H](NC(=O)[C@H](C)NC(=O)CNC(=O)[C@H](Cc1ccccc1)NC(=O)[C@H](CC(N)=O)NC(=O)[C@@H]1CCCN1C(=O)[C@H](CO)NC(=O)[C@H](CO)NC(=O)[C@H](Cc1c[nH]cn1)NC(=O)[C@H](CCCNC(=N)N)NC(=O)[C@H](CC(C)C)NC(=O)[C@H](Cc1ccccc1)NC(=O)[C@H](CCC(=O)O)NC(=O)[C@H](C)NC(=O)[C@H](CC(C)C)NC(=O)[C@H](CCCNC(=N)N)NC(=O)[C@H](CCC(N)=O)NC(=O)[C@@H](NC(=O)[C@H](C)NC(=O)[C@@H]1CSSC[C@H](NC(=O)[C@@H](N)CCCCNC(=O)CC[C@H](NC(=O)CC[C@H](NC(=O)CCCCCCCCCCCCCCCCCCC(=O)O)C(=O)O)C(=O)O)C(=O)N[C@@H](CC(N)=O)C(=O)N[C@@H]([C@@H](C)O)C(=O)N[C@@H](C)C(=O)N[C@@H]([C@@H](C)O)C(=O)N1)[C@@H](C)O)C(=O)N1CCC[C@H]1C(=O)N[C@@H](CO)C(=O)N[C@@H](CO)C(=O)N[C@H](C(=O)N[C@@H](CC(N)=O)C(=O)N[C@H](C(=O)NCC(=O)N[C@@H](CCCNC(=N)N)C(=O)N[C@@H](CC(N)=O)C(=O)N[C@H](C(=O)N[C@@H](Cc1ccc(O)cc1)C(N)=O)[C@@H](C)O)C(C)C)[C@@H](C)O [Example 88] (H-K([γGlu-γGlu-C20 diacid])CNTATCATQRLAEFLRHSSPNFGAIPSSTNVGRNTY-NH2; disulfide 2-7) | 6.55 | 34.9 |  | 0.75 | 8.5 | 8.5 | 8.5 | 0.773 | 8.5 | 8.5 |  |  |  | 
2 | CC[C@H](C)[C@H](NC(=O)[C@H](C)NC(=O)CNC(=O)[C@H](Cc1ccccc1)NC(=O)[C@H](CC(N)=O)NC(=O)[C@@H]1CCCN1C(=O)[C@H](CO)NC(=O)[C@H](CO)NC(=O)[C@H](Cc1c[nH]cn1)NC(=O)[C@H](CCCNC(=N)N)NC(=O)[C@H](CC(C)C)NC(=O)[C@H](Cc1ccccc1)NC(=O)[C@H](CCCNC(=N)N)NC(=O)[C@H](C)NC(=O)[C@H](CC(C)C)NC(=O)[C@H](CCCNC(=N)N)NC(=O)[C@H](CCC(N)=O)NC(=O)[C@@H](NC(=O)[C@H](C)NC(=O)[C@@H]1CSSC[C@H](NC(=O)[C@@H](N)CCCCNC(=O)CC[C@H](NC(=O)CCCCCCCCCCCCCCCCCCC(=O)O)C(=O)O)C(=O)N[C@@H](CC(N)=O)C(=O)N[C@@H]([C@@H](C)O)C(=O)N[C@@H](C)C(=O)N[C@@H]([C@@H](C)O)C(=O)N1)[C@@H](C)O)C(=O)N1CCC[C@H]1C(=O)N[C@@H](CO)C(=O)N[C@@H](CO)C(=O)N[C@H](C(=O)N1CCC[C@H]1C(=O)N[C@H](C(=O)NCC(=O)N[C@@H](CO)C(=O)N[C@@H](CC(N)=O)C(=O)N[C@H](C(=O)N[C@@H](Cc1ccc(O)cc1)C(N)=O)[C@@H](C)O)C(C)C)[C@@H](C)O [Example 63] (H-K([γGlu-C20 diacid])CNTATCATQRLARFLRHSSPNFGAIPSSTPVGSNTY-NH2; disulfide 2-7) | 5.13 | 130 | 0.037 | 0.825 |  |  |  |  |  |  |  |  |  | 

The remaining lines, values ahead:

Row | EC50 [1] [nM] | IC50 [2] [nM] | EC50 [3, 5] [nM] | IC50 [4] [nM] | Ratio hCT/hAmylin funct. [3, 6] | Ratio hCT/hAmylin funct. [3, 7] | Ratio hCT/hAmylin funct. ([3]; Table 6i, hCTR funct. EC50 / hAmylin-R funct. EC50) | EC50 ([3]; Table 6i, human amylin receptor functional) [nM] | Ratio hCT/hAmylin funct. [3, 8] | Ratio hCT/hAmylin funct. [3, 9] | EC50 ([3]; Table 6j, human amylin receptor functional) [nM] | Ratio hCT/hAmylin binding ([4]; Table 7b, human calcitonin receptor binding IC50 divided by human amylin receptor binding IC50) | Ratio hCT/hAmylin binding ([4]; Table 7c, human calcitonin receptor binding IC50 divided by human amylin receptor binding IC50) | Ratio hCT/hAmylin binding ([4]; human binding ratio, included for comparison) | Compound
3 | 7.05 | 15.2 | 0.445 | 0.525 |  |  |  |  |  |  |  |  |  |  | CC[C@H](C)[C@H](NC(=O)[C@H](C)NC(=O)CNC(=O)[C@H](Cc1ccccc1)NC(=O)[C@H](CC(N)=O)NC(=O)[C@@H]1CCCN1C(=O)[C@H](CO)NC(=O)[C@H](CO)NC(=O)[C@H](Cc1c[nH]cn1)NC(=O)[C@H](CCCNC(=N)N)NC(=O)[C@H](CC(C)C)NC(=O)[C@H](Cc1ccccc1)NC(=O)[C@H](CCC(=O)O)NC(=O)[C@H](C)NC(=O)[C@H](CC(C)C)NC(=O)[C@H](CCCNC(=N)N)NC(=O)[C@H](CCC(N)=O)NC(=O)[C@@H](NC(=O)[C@H](C)NC(=O)[C@@H]1CSSC[C@H](NC(=O)[C@@H](N)CCCCNC(=O)CC[C@H](NC(=O)CC[C@H](NC(=O)CCCCCCCCCCCCCCCCCCC(=O)O)C(=O)O)C(=O)O)C(=O)N[C@@H](CC(N)=O)C(=O)N[C@@H]([C@@H](C)O)C(=O)N[C@@H](C)C(=O)N[C@@H]([C@@H](C)O)C(=O)N1)[C@@H](C)O)C(=O)N1CCC[C@H]1C(=O)N[C@@H](CO)C(=O)N[C@@H](CO)C(=O)N[C@H](C(=O)N[C@@H](CC(N)=O)C(=O)N[C@H](C(=O)NCC(=O)N[C@@H](Cc1c[nH]cn1)C(=O)N[C@@H](CCC(=O)O)C(=O)N[C@H](C(=O)N[C@@H](Cc1ccc(O)cc1)C(N)=O)[C@@H](C)O)C(C)C)[C@@H](C)O [Example 104] (H-K([γGlu-γGlu-C20 diacid])CNTATCATQRLAEFLRHSSPNFGAIPSSTNVGHETY-NH2; disulfide 2-7)
4 | 0.527 | 1.54 |  | 0.048 | 9.4 | 9.4 |  |  | 9.4 | 9.4 | 0.056 | 32.0 | 32.0 | 32.0 | CC[C@H](C)[C@H](NC(=O)[C@H](C)NC(=O)CNC(=O)[C@H](Cc1ccccc1)NC(=O)[C@H](CC(N)=O)NC(=O)[C@@H]1CCCN1C(=O)[C@H](CO)NC(=O)[C@H](CO)NC(=O)[C@H](Cc1c[nH]cn1)NC(=O)[C@H](CCCNC(=N)N)NC(=O)[C@H](CC(C)C)NC(=O)[C@H](Cc1ccccc1)NC(=O)CNC(=O)[C@H](C)NC(=O)[C@H](CC(C)C)NC(=O)[C@H](CCCNC(=N)N)NC(=O)[C@H](CCC(N)=O)NC(=O)[C@@H](NC(=O)[C@H](C)NC(=O)[C@@H]1CSSC[C@H](NC(=O)[C@@H](N)CCCCNC(=O)COCCOCCNC(=O)CC[C@H](NC(=O)CCCCCCCCCCCCCCCCCCC(=O)O)C(=O)O)C(=O)N[C@@H](CC(N)=O)C(=O)N[C@@H]([C@@H](C)O)C(=O)N[C@@H](C)C(=O)N[C@@H]([C@@H](C)O)C(=O)N1)[C@@H](C)O)C(=O)N1CCC[C@H]1C(=O)N[C@@H](CO)C(=O)N[C@@H](CO)C(=O)N[C@H](C(=O)N1CCC[C@H]1C(=O)N[C@H](C(=O)NCC(=O)N[C@@H](CO)C(=O)N[C@@H](CC(N)=O)C(=O)N[C@H](C(=O)N[C@@H](Cc1ccc(O)cc1)C(N)=O)[C@@H](C)O)C(C)C)[C@@H](C)O [Example 71] (H-K([AEEA-γGlu-C20 diacid])CNTATCATQRLAGFLRHSSPNFGAIPSSTPVGSNTY-NH2; disulfide 2-7)
5 | 1.32 | 15.5 | 0.222 | 0.344 | 6.0 | 6.0 |  |  | 6.0 | 6.0 |  |  |  |  | CC[C@H](C)[C@H](NC(=O)[C@H](C)NC(=O)CNC(=O)[C@H](Cc1ccccc1)NC(=O)[C@H](CC(N)=O)NC(=O)[C@@H]1CCCN1C(=O)[C@H](CO)NC(=O)[C@H](CO)NC(=O)[C@H](Cc1c[nH]cn1)NC(=O)[C@H](CCCNC(=N)N)NC(=O)[C@H](CC(C)C)NC(=O)[C@H](Cc1ccccc1)NC(=O)[C@H](CC(N)=O)NC(=O)[C@H](C)NC(=O)[C@H](CC(C)C)NC(=O)[C@H](CCCNC(=N)N)NC(=O)[C@H](CCC(N)=O)NC(=O)[C@@H](NC(=O)[C@H](C)NC(=O)[C@@H]1CSSC[C@H](NC(=O)[C@H](CCCNC(=N)N)NC(=O)CNC(=O)CC[C@H](NC(=O)CCCCCCCCCCCCCCCCCCC(=O)O)C(=O)O)C(=O)N[C@@H](CC(N)=O)C(=O)N[C@@H]([C@@H](C)O)C(=O)N[C@@H](C)C(=O)N[C@@H]([C@@H](C)O)C(=O)N1)[C@@H](C)O)C(=O)N1CCC[C@H]1C(=O)N[C@@H](CO)C(=O)N[C@@H](CO)C(=O)N[C@H](C(=O)N[C@@H](CC(N)=O)C(=O)N[C@H](C(=O)NCC(=O)N[C@@H](CO)C(=O)N[C@@H](Cc1c[nH]cn1)C(=O)N[C@H](C(=O)N[C@@H](Cc1ccc(O)cc1)C(N)=O)[C@@H](C)O)C(C)C)[C@@H](C)O [Example 47] ({C20 diacid-γGlu}-GRCNTATCATQRLANFLRHSSPNFGAIPSSTNVGSHTY-NH2; disulfide 3-8)
